Results published in US20020183384A1, “Methods of treating nuclear factor-kappa B mediated diseases and disorders” (priority 2001, published 2002).
Where two headings read alike, the source gives them in different places.

Test system: NF-κB mediated transcription
Experiment: NF-κB driven β-lactamase reporter assay in ECV-304 NF-κB.βlaZ cells (AURORA CCF2 fluorescence)
Format: cell-based, human
Details: 10 μM compound, ECV-304 NF-κB.βlaZ cells stimulated with 10 ng/mL TNF-α or 100 pg/mL IL-1β, 6 hours at 37° C., inhibition of maximum blue/green ratio; for inhibition at 10 µM: Homo sapiens, read-out: Percent Inhibition at 10 μM
In short: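 ECV-304 cells (clone 1E8) stably carrying a β-lactamase reporter driven by 5 HIV-1 NF-κB sites, plated in M-199 with 2% FBS, compound at 10 μM final. CCF2 read at 395 nm excitation, blue 460 nm/green 530 nm emission ratio; IC50 from dose-response curve.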

SMILES	inhibition at 10 µM (ECV-304, 6 h) [%]	further results
CC(C)c1cc(-c2cc(C(C)C)c(OC(=O)NS(=O)(=O)Oc3c(C(C)C)cccc3C(C)C)c(C(C)C)c2)cc(C(C)C)c1OC(=O)NS(=O)(=O)Oc1c(C(C)C)cccc1C(C)C [Example 134, Carbamic acid, [[2,6-bis(1-methylethyl)phenoxy]sulfonyl]-, 3,3′,5,5′-tetrakis(1-methylethyl) [1,1′-biphenyl]-4,4′-diyl ester]	–	Percent Inhibition at 10 μM: 18.39%
CC(C)c1cccc(C(C)C)c1OC(=O)NS(=O)(=O)Oc1c(C(C)C)cc(O)cc1C(C)C [Example 135, Carbamic acid, [[4-hydroxy-2,6-bis(1-methylethyl)phenoxy]sulfonyl]-, 2,6-bis(1-methylethyl)phenyl ester]	–	inhibition at 10 µM: < 10%
CC(C)c1cccc(C(C)C)c1OS(=O)(=O)NC(=O)OC12CC3CC(CC(C3)C1)C2 [Example 136, Carbamic acid, [[2,6-bis(1-methylethyl)phenoxy]sulfonyl]-, tricyclo[3.3.1.1^3,7]-dec-1-yl ester]	< 10	–
Cc1cccc(C(C)(C)C)c1OC(=O)NS(=O)(=O)Oc1c(C(C)C)cccc1C(C)C [Example 137, Carbamic acid, [[2,6-bis(1-methylethyl)phenoxy]sulfonyl]-, 2-(1,1-dimethylethyl)-6-methylphenyl ester]	–	inhibition at 10 µM: < 10%
CC1CCC(C(C)C)C(OC(=O)NS(=O)(=O)Oc2c(C(C)C)cccc2C(C)C)C1 (stereo not drawn) [Example 138, Carbamic acid, [[2,6-bis(1-methylethyl)phenoxy]sulfonyl]-, 5-methyl-2-(1-methylethyl)cyclohexyl ester]	66.2	–
CC(C)c1cccc(C(C)C)c1OS(=O)(=O)NC(=O)Sc1c(C(C)C)cccc1C(C)C [Example 139, Carbamothioic acid, [[2,6-bis(1-methylethyl)phenoxy]sulfonyl]-, S-[2,6-bis(1-methylethyl)phenyl] ester]	65.5	–
CCc1cccc(CC)c1COC(=O)NS(=O)(=O)Oc1c(C(C)C)cccc1C(C)C [Example 140, Carbamic acid, [[2,6-bis(1-methylethyl)phenoxy]sulfonyl]-, (2,6-diethylphenyl)methyl ester]	38.7	–
CC(C)c1cccc(C(C)C)c1OC(=O)NS(=O)(=O)NC(=O)Oc1c(C(C)C)cccc1C(C)C [Example 141, Carbamic acid, sulfonylbis-, bis[2,6-bis(1-methylethyl)phenyl] ester]	–	inhibition at 10 µM: < 10%
CC(C)c1cccc(C(C)C)c1OS(=O)(=O)NC(=O)OC1[C@H](C(C)C)CCC[C@H]1C(C)C [Example 142, Carbamic acid, [[2,6-bis(1-methylethyl)phenoxy]sulfonyl]-, (2S,6S)-2,6-bis(1-methylethyl)cyclohexyl ester]	53.9	–
CC(C)c1cc(C(C)(C)C)cc(C(C)C)c1OC(=O)NS(=O)(=O)Oc1c(C(C)C)cccc1C(C)C [Example 143, Carbamic acid, [[2,6-bis(1-methylethyl)phenoxy]sulfonyl]-, 4-(1,1-dimethylethyl)-2,6-bis(1-methylethyl)phenyl ester]	–	inhibition at 10 µM: 65.8%
CC(C)c1cccc(C(C)C)c1OS(=O)(=O)NC(=O)C1CC1c1ccccc1 (stereo not drawn) [Example 144, (2-Phenyl-cyclopropanecarbonyl)-sulfamic acid 2,6-diisopropyl-phenyl ester]	16.2	–
COc1ccc(OC)c(CC(=O)NS(=O)(=O)Oc2c(C(C)C)cccc2C(C)C)c1 [Example 145, [(2,5-Dimethoxy-phenyl)-acetyl]-sulfamic acid 2,6-diisopropyl-phenyl ester]	< 10	–
Cc1cc(C)c(CC(=O)NS(=O)(=O)Oc2c(C(C)C)cccc2C(C)C)c(C)c1 [Example 146, [(2,4,6-Trimethyl-phenyl)-acetyl]-sulfamic acid 2,6-diisopropyl-phenyl ester]	28.3	–
COc1cc(OC)c(CC(=O)NS(=O)(=O)Oc2c(C(C)C)cccc2C(C)C)c(OC)c1 [Example 147, [(2,4,6-Trimethoxy-phenyl)-acetyl]-sulfamic acid 2,6-diisopropyl-phenyl ester]	< 10	–
CC(C)c1cccc(C(C)C)c1OS(=O)(=O)NC(=O)Cc1cccs1 [Example 148, (Thiophen-2-yl-acetyl)-sulfamic acid 2,6-diisopropyl-phenyl ester]	< 10	–
CC(C)c1cccc(C(C)C)c1OS(=O)(=O)NC(=O)Cc1ccsc1 [Example 149, (Thiophen-3-yl-acetyl)-sulfamic acid 2,6-diisopropyl-phenyl ester]	< 10	–
CC(C)c1cccc(C(C)C)c1OS(=O)(=O)NC(=O)Oc1ccc(F)cc1 [Example 150, Carbamic acid, [[2,6-bis(1-methylethyl)phenoxy]sulfonyl]-, 4-fluorophenyl ester]	–	inhibition at 10 µM: < 10%
CC(C)c1cccc(C(C)C)c1OS(=O)(=O)NC(=O)Oc1ccc(F)cc1F [Example 151, Carbamic acid, [[2,6-bis(1-methylethyl)phenoxy]sulfonyl]-, 2,4-difluorophenyl ester]	–	inhibition at 10 µM: < 10%

SMILES	inhibition at 10 µM (ECV-304, 6 h) [%]	further results
CC(C)c1cccc(C(C)C)c1OS(=O)(=O)NC(=O)Oc1c(F)c(F)c(F)c(F)c1F [Example 152, Carbamic acid, [[2,6-bis(1-methylethyl)phenoxy]sulfonyl]-, pentafluorophenyl ester]	–	inhibition at 10 µM: < 10%
CC(C)c1cccc(C(C)C)c1OS(=O)(=O)NC(=O)Oc1c(F)cccc1F [Example 153, Carbamic acid, [[2,6-bis(1-methylethyl)phenoxy]sulfonyl]-, 2,6-difluorophenyl ester]	–	inhibition at 10 µM: < 10%
CC(=O)OC(C(=O)NS(=O)(=O)Oc1c(C(C)C)cccc1C(C)C)c1c(C(C)C)cc(C(C)C)cc1C(C)C (stereo not drawn) [Example 154, Acetic acid 2-(2,6-diisopropyl-phenoxysulfonylamino)-2-oxo-1-(2,4,6-triisopropyl-phenyl)-ethyl ester]	77.7	–
CC(C)c1cccc(C(C)C)c1OS(=O)(=O)NC(=O)CC1CCCCC1 [Example 155, Cyclohexylacetyl-sulfamic acid 2,6-diisopropyl-phenyl ester]	< 10	–
COc1ccccc1CC(=O)NS(=O)(=O)Oc1c(C(C)C)cccc1C(C)C [Example 156, [(2-Methoxy-phenyl)-acetyl]-sulfamic acid 2,6-diisopropyl-phenyl ester]	< 10	–
CC(C)c1cccc(C(C)C)c1OS(=O)(=O)NC(=O)C(=O)c1ccccc1 [Example 157, (Oxo-phenyl-acetyl)-sulfamic acid 2,6-diisopropyl-phenyl ester]	< 10	–
CC(C)c1cccc(C(C)C)c1OS(=O)(=O)NC(=O)Cc1ccccc1C(F)(F)F [Example 158, [(2-Trifluoromethyl-phenyl)-acetyl]-sulfamic acid 2,6-diisopropyl-phenyl ester]	25.9	–
CC(C)c1cccc(C(C)C)c1OS(=O)(=O)NC(=O)C(C)c1ccccc1 (stereo not drawn) [Example 159, (2-Phenyl-propionyl)-sulfamic acid 2,6-diisopropyl-phenyl ester]	10.1	–
CC(C)c1cccc(C(C)C)c1OS(=O)(=O)NC(=O)C(c1ccccc1)c1ccccc1 [Example 160, Diphenylacetyl-sulfamic acid 2,6-diisopropyl-phenyl ester]	34.2	–
CC(C)c1cccc(C(C)C)c1OS(=O)(=O)NC(=O)C(c1ccccc1)C1CCCC1 (stereo not drawn) [Example 161, (Cyclopentyl-phenyl-acetyl)-sulfamic acid 2,6-diisopropyl-phenyl ester]	51.5	–
CC(C)c1cc(C(C)C)c(C(O)C(=O)NS(=O)(=O)Oc2c(C(C)C)cccc2C(C)C)c(C(C)C)c1 (stereo not drawn) [Example 162, [Hydroxy-(2,4,6-triisopropyl-phenyl)-acetyl]-sulfamic acid 2,6-diisopropyl-phenyl ester]	75.3	–
CC(C)c1cccc(C(C)C)c1OS(=O)(=O)NC(=O)C(c1ccccc1)(c1ccccc1)c1ccccc1 [Example 163, Triphenylacetyl-sulfamic acid 2,6-diisopropyl-phenyl ester]	62.4	–
CC(C)c1cccc(C(C)C)c1OS(=O)(=O)NC(=O)OC1[C@@H](C(C)C)CCC[C@H]1C(C)C (stereo partly drawn) [Example 164, Carbamic acid, [[2,6-bis(1-methylethyl)phenoxy]sulfonyl]-, (2R,6S)-2,6-bis(1-methylethyl)cyclohexyl ester]	55.2	–
CC(C)c1cccc(C(C)C)c1OS(=O)(=O)NC(=O)C1CCc2ccccc2C1 (stereo not drawn) [Example 165, (1,2,3,4-Tetrahydro-naphthalene-2-carbonyl)-sulfamic acid 2,6-diisopropyl-phenyl ester]	28.7	–
Cc1cc(C)c(C)c(OC(=O)NS(=O)(=O)Oc2c(C(C)C)cccc2C(C)C)c1C [Example 166, Carbamic acid, [[2,6-bis(1-methylethyl)phenoxy]sulfonyl]-, 2,3,5,6-tetramethylphenyl ester]	–	inhibition at 10 µM: < 10%
CCC(C)C(C(=O)NS(=O)(=O)Oc1c(C(C)C)cccc1C(C)C)c1ccccc1 (stereo not drawn) [Example 167, (3-Methyl-2-phenyl-pentanoyl)-sulfamic acid 2,6-diisopropyl-phenyl ester]	40	–
CC(C)c1cccc(C(C)C)c1OS(=O)(=O)NC(=O)C1(c2ccccc2)CCCC1 [Example 168, (1-Phenyl-cyclopentanecarbonyl)-sulfamic acid 2,6-diisopropyl-phenyl ester]	39.1	–
CCC(C(=O)NS(=O)(=O)Oc1c(C(C)C)cccc1C(C)C)c1ccccc1 (stereo not drawn) [Example 169, (2-Phenyl-butyryl)-sulfamic acid 2,6-diisopropyl-phenyl ester]	21.3	–
